5 compounds from publication PMC8776094, “Reactive Oxygen Species Production Is Responsible for Antineoplastic Activity of Osmium, Ruthenium, Iridium and Rhodium Half-Sandwich Type Complexes with Bidentate Glycosyl Heterocyclic Ligands in Various Cancer Cell Models” (International Journal of Molecular Sciences, 2022) can be followed below.

Molecules are shown by their SMILES.

Holding throughout (assay type): cell-based
The test system of assay [1] is ID8 ovarian cancer cell line. In words: SRB assay, 48 h, cytostasis, ID8. Particulars: for IC50 / ID8 Max. Inh. (%): SRB assay, 48 h; for ID8 Max. Inh. (%): ND = not detected. The method, then: (§1) The compounds were tested between 0.001694 and 33.3333 µM, using a 4-hour-long MTT test to assess rapid toxicity and a 48-hour-long SRB assay to assess the long-term effects of the inhibition of proliferation (cytostasis). The MTT assay assesses the activity of mitochondrial complex I and detects rapid, direct toxicity, as well as indicating apoptosis and necrosis. The SRB assay measures the total protein content that is proportional to cell numbers; therefore, the assay can detect changes in cell numbers and can thus be used as a readout for cell proliferation. The SRB assay was performed after 48 h of treatment (with the exception of L428 cells, which were tested for 96 h due to their slower proliferation rate). In this setting, the SRB assay informs us of long-term changes to cell proliferation. We assessed the maximal inhibition within that concentration range, and descriptive statistics were performed. We performed a one-way ANOVA, followed by the Kruskal–Wallis test, regardless of the normal or non-normal distribution of the data. Due to the large number of significance values, the results of the significance calculations are provided in an Excel spreadsheet at https://figshare.com/s/28d14597d5041f08eb08 (accessed on 6 January 2022), among other primary data of the study. Where possible, nonlinear regression was performed on the curves to determine the IC50 values ((inhibitor) vs. response—variable slope (four parameters) method with Graphpad v8.0.1). […] In Table 5, we added the IC50 values that we determined for a set of 4 active ruthenium half-sandwich complexes we identified previously, to be used in subsequent structure-activity relationship (SAR) analyses.
ID8 cells were cultured in a high-glucose DMEM (4.5 g/L glucose) medium, supplemented with 4% fetal calf serum, 2 mM glutamine, 1% penicillin-streptomycin, and 1% ITS supplement (I3146).
(§2) The assay was performed similarly to the method used in [73]. Cells were seeded in 96-well plates the day before the assay. Cells were treated with the compounds for 48 h, with the exception of L428, where 96 h of treatment was applied. Cells were fixed with 10% trichloroacetic acid (TCA). Fixed cells were washed in distilled water 3 times, followed by staining with SRB (0.4 m/V% dissolved in 1% acetic acid) for 10 min. The stained cells were washed in 1% acetic acid 5 times; the acetic acid was removed, and the cells were left to dry. Protein-bound SRB was released by adding 100 µL 10 mM Tris base. Plates were measured in a plate photometer (Thermo Scientific Multiscan GO spectrophotometer, Waltham, MA, USA) at 540 nm. On each plate, wells were designed to contain untreated cells. In calculations, the readings for these wells were considered as 1 and all readings were expressed relative to these values.
(§3) Statistical analysis was performed using the 8.0.1 version of Graphpad Prism. Values were tested for normal distribution, using the d’Agostino and Pearson normality test. When necessary, values were log-normalized or were normalized using the Box-Cox normalization method or using a two-step transformation, as indicated in the figure captions. Nonlinear regression was performed using the built-in “[Inhibitor] vs. Response—Variable slope (four parameters), least-square fit” utility of Graphpad, yielding the IC50 and Hill slope values.

For assay [2], the system named is L428, a Hodgkin's lymphoma cell line. In words: Cytostasis assay, 96 h, L428. The conditions noted are these: for cytostatic activity on L428 cells (in words): 96 h; for L428 Max. Inh. (%): 96 h treatment, ND = not detected. As for the experimental part:
as §1
(§4) We turned next to assessing whether the cytostatic activity of Os-3, Os-4, Os-5, Os-6 and Ir-6 complexes is specific for ovarian cancer cell lines or if they may be active on other cell lines. To that end, we tested the complexes on another carcinoma cell line (Capan2, a pancreatic adenocarcinoma cell line), on a sarcoma cell line (Saos, an osteosarcoma cell line) and on a lymphoma cell line (L428, a Hodgkin’s lymphoma cell line).
L428 cells were maintained in RPMI 1640 medium, supplemented with 10% fetal calf serum, 2 mM glutamine, and 1% penicillin-streptomycin.
as §2
Here, 1.5 × 10^3 Capan2, 3 × 10^3 Saos cells and 10^4 L428 cells were plated onto 96-well plates. Capan2 and Saos cells were treated with the compounds in the concentrations indicated for 48 h for an SRB assay. L428 cells were treated with the compounds in the concentrations indicated for 96 h, then cells were counted using conventional microscopy and a Burker chamber. Data are represented as average ± SD, from three biological replicates; individual assays were performed in duplicate. Values were normalized for vehicle-treated cells; the absorbance for vehicle-treated cells is equal to 1. A one-way ANOVA, followed by a Kruskal–Wallis test, was performed individually for each compound. […]

Assay [3] relates to Capan2, a pancreatic adenocarcinoma cell line. Kind of assay: SRB assay, 48 h, cytostasis, Capan2. The conditions noted are these: for IC50 / Capan2 Max. Inh. (%): SRB assay; for Capan2 Max. Inh. (%): ND = not detected.
From the text: as §4
Capan2 cells were maintained in MEM, 10% fetal bovine serum, 1% penicillin/streptomycin, and 2 mM glutamine.
as §2, §3
Here, 1.5 × 10^3 Capan2, 3 × 10^3 Saos cells and 10^4 L428 cells were plated onto 96-well plates. Capan2 and Saos cells were treated with the compounds in the concentrations indicated for 48 h for an SRB assay. L428 cells were treated with the compounds in the concentrations indicated for 96 h, then cells were counted using conventional microscopy and a Burker chamber. Data are represented as average ± SD, from three biological replicates; individual assays were performed in duplicate. Values were normalized for vehicle-treated cells; the absorbance for vehicle-treated cells is equal to 1. A one-way ANOVA, followed by a Kruskal–Wallis test, was performed individually for each compound. The results of the statistical analysis are presented in an Excel spreadsheet at https://figshare.com/s/28d14597d5041f08eb08 (accessed on 6 January 2022). Nonlinear regression was performed on the data.
In general terms: The SRB assay estimates cell density from bound dye.

One may read the IC50 as the midpoint of a concentration-inhibition curve. A high value points to weaker potency. On to `Cc1c(C)c(C)[c-](C)c1C.F[P-](F)(F)(F)(F)F.O=C(OCC1OC(n2cc(-c3ccccn3)nn2)C(OC(=O)c2ccccc2)C(OC(=O)c2ccccc2)C1OC(=O)c1ccccc1)c1ccccc1.[Cl][Ir+2]` (mixture of isomers) [Ir-6], for which, in assay [1] (48 h treatment), the “cytostatic activity on ID8 cells, SRB assay (in words)” value is “pronounced cytostatic activity”. In addition, in assay [1], the IC50 was 0.98 µM and the “ID8 Max. Inh. (%)” value is reported as 100%. Moreover, in assay [2], the “cytostatic activity on L428 cells (in words)” value is recorded as “active on all cell lines” and the “L428 Max. Inh. (%)” value was 100%. In assay [3], the “cytostatic activity on Capan2 cells (in words)” value is “active on all cell lines”, the IC50 stood at 4.15 µM and the “Capan2 Max. Inh. (%)” value is 100%.

`Cc1ccc(C(C)C)cc1.F[P-](F)(F)(F)(F)F.O=C(OCC1OC(c2nnc(-c3ccccn3)o2)C(OC(=O)c2ccccc2)C(OC(=O)c2ccccc2)C1OC(=O)c1ccccc1)c1ccccc1.[Cl][Os+]` (mixture of isomers) [Os-3]: in assay [1], 5.94 µM corresponded to half-maximal inhibition (IC50) and the “ID8 Max. Inh. (%)” value is on record as 100%. For the same compound, in assay [2], the “cytostatic activity on L428 cells (in words)” value is listed as “active on all cell lines” and the “L428 Max. Inh. (%)” value is 100%. In addition, in assay [3], the “cytostatic activity on Capan2 cells (in words)” value was “active on all cell lines”, the IC50 was 8.8 µM and the “Capan2 Max. Inh. (%)” value was 100%.

Consider `Cc1ccc(C(C)C)cc1.F[P-](F)(F)(F)(F)F.O=C(OCC1OC(c2nnc(-c3ccccn3)o2)C(OC(=O)c2ccccc2)C(OC(=O)c2ccccc2)C1OC(=O)c1ccccc1)c1ccccc1.[Cl][Os+]` (mixture of isomers) [Os-4], for which, in assay [1], the IC50 was 6.95 µM and the “ID8 Max. Inh. (%)” value is 100%. Also, in assay [2], the “cytostatic activity on L428 cells (in words)” value is “active on all cell lines” and the “L428 Max. Inh. (%)” value is on record as 100%. In assay [3], the “cytostatic activity on Capan2 cells (in words)” value is “active on all cell lines”, the IC50 amounted to 6.2 µM and the “Capan2 Max. Inh. (%)” value is given as 100%.

As to `Cc1ccc(C(C)C)cc1.F[P-](F)(F)(F)(F)F.O=C(OC1COC(c2nnc(-c3ccccn3)o2)C(OC(=O)c2ccccc2)C1OC(=O)c1ccccc1)c1ccccc1.[Cl][Os+]` (mixture of isomers) [Os-5], in assay [1], the IC50 amounted to 1.96 µM and the “ID8 Max. Inh. (%)” value amounted to 100%. Besides, in assay [2], the “cytostatic activity on L428 cells (in words)” value is listed as “active on all cell lines” and the “L428 Max. Inh. (%)” value came out at 100%. For the same compound, in assay [3], the “cytostatic activity on Capan2 cells (in words)” value was “active on all cell lines”, the IC50 was found to be 8.89 µM and the “Capan2 Max. Inh. (%)” value stood at 100%.

As to `Cc1ccc(C(C)C)cc1.F[P-](F)(F)(F)(F)F.O=C(OCC1OC(n2cc(-c3ccccn3)nn2)C(OC(=O)c2ccccc2)C(OC(=O)c2ccccc2)C1OC(=O)c1ccccc1)c1ccccc1.[Cl][Os+]` (mixture of isomers) [Os-6], in assay [1], the IC50 worked out at 1.96 µM and the “ID8 Max. Inh. (%)” value amounted to 100%. For the same compound, in assay [2], the “cytostatic activity on L428 cells (in words)” value is reported as “active on all cell lines” and the “L428 Max. Inh. (%)” value stood at 100%. Further, in assay [3], the “cytostatic activity on Capan2 cells (in words)” value is given as “active on all cell lines”, half-maximal inhibition (IC50) required 1.71 µM and the “Capan2 Max. Inh. (%)” value came out at 100%.
